{
  "source": "paper PMC10119282",
  "about": "“Molecular characterization of AIFM2/FSP1 inhibition by iFSP1-like molecules” (Cell Death & Disease, 2023)",
  "molecular_target": "T1, hFSP1 WT (Homo sapiens, UniProt Q9BRQ8)",
  "T1 construct": "HisSUMO (cleaved yes); made in house; host or cells: E. coli BL21",
  "T1 sequence (Q9BRQ8 1-373)": "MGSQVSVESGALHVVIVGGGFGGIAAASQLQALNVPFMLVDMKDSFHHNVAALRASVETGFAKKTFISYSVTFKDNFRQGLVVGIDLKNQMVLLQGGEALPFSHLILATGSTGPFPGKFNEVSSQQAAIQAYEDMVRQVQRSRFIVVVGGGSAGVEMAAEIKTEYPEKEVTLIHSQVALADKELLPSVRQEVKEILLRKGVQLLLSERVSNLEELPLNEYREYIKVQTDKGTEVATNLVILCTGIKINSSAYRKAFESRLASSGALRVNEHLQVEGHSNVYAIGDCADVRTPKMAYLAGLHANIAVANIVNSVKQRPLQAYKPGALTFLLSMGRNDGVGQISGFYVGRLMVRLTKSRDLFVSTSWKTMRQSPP",
  "experiment": "Competition MST against pre-formed complex of hFSP1 WT and FSP1-Tracer",
  "type": "binding",
  "method": "FSP1 (human isoform 1, UniProt Q9BRQ8-1) WT (hFSP1 WT) and F360L (hFSP1 F360L) were expressed in E.coli BL21 as HisSUMO fusion protein. Cells were grown in lysogeny broth medium at 18 °C and induced with 0.5 mM isopropyl-β-thiogalactoside at a cell density A600 of 0.6. Cells were collected after overnight expression by centrifugation, resuspended in lysis buffer ([…], 50 mM Tris-HCl pH 8, 1 mM TCEP, 20 mM imidazole, protease inhibitor, DNase) and lysed by sonication. Cell debris was removed by centrifugation (30,000 × g) at 4 °C for 30 min, after which an IMAC purification was performed. Briefly, a HisTrap crude FF (5 mL) column was equilibrated to lysis buffer, lysates were loaded via the sample pump and the column was then washed with 50 mL lysis buffer. During the elution with a gradient to 100% IMAC elution buffer (300 mM NaCl, 50 mM Tris-HCl pH 8, 1 mM TCEP, 400 mM imidazole) over 100 mL, 5 mL fractions were collected. The pooled fractions were dialysed overnight in the presence of SenP2 SUMO protease at a ratio of 40:1 FSP1:SenP2. Afterwards, a reverse IMAC purification was performed on a HisTrap crude FF (5 mL) column. IMAC eluates were analysed by SDS PAGE and concentrated to 15 mL (hFSP1 WT) and 5 mL (hFSP1 F360L), respectively. […] Pure fractions were pooled (C12—D11 for hFSP1 WT and C7—D4 for hFSP1 F360L), analysed by SDS-PAGE (Supplementary Fig. 4) and concentrated to 5.8 mL at 285.9 µM (hFSP1 WT) and 1.2 mL at 269.5 µM (FSP1 F360L), flash frozen in liquid N2 and stored at −80 °C.\nAn MST buffer consisting of 1× phosphate-buffered saline (PBS; 137 mM NaCl, 2.7 mM KCl, 10 mM Na2HPO4, 1.8 mM KH2PO4, pH 7.4) with 2 mM reduced L-Glutathione (GSH, Sigma Aldrich, product number G4251) and 0.05% (v/v) Tween 20 (ITW Reagents, molecular biology grade, product number A4974) was used for all MST measurements. […] KD values were determined by applying a Hill-fit to a plot of Fnorm vs. hFSP1 WT/F360L concentration. […]",
  "data": [
    {"molecule": "Cc1ccc(-c2c(C#N)c(N)n3c(nc4ccccc43)c2C#N)cc1", "note": "[iFSP1]", "values": [
      {"measurement": "Ki", "setting": "hFSP1 WT 5 µM and FSP1-Tracer 5 nM pre-formed complex", "result": 61.6, "unit": "nM"},
      {"measurement": "higher binding affinity to hFSP1 than NADH", "setting": "iFSP1 Ki versus NADH Ki", "result": 7.4, "unit": "fold"}
    ]}
  ]
}
